Where two headings read alike, the source gives them in different places.
Key:
EBOV = details: cited from earlier work
HIV-1/H5N1 pseudovirus = assay: organism not typed; assay type: cell-based, influenza A virus A/Goose/Qinghai/59/05 (H5N1); details: for inhibition at 10 µM: A549, 48 h, read-out: Inhibition HIV-1/H5N1; for Inhibition HIV/H5N1: 10 µM
HIV-1/LASV pseudovirus = assay: microbe, parasite or virus in culture; assay type: cell-based; details: for inhibition at 10 µM: Human immunodeficiency virus 1, A549, 48 h, read-out: Inhibition HIV-1/LASV; for Inhibition HIV/LASV: 10 µM
HIV-1/EBOV pseudovirus [1] = details: for Inhibition HIV/EBOV: 10 µM
in vitro = details: human
HIV-1/EBOV pseudovirus [2] = assay: organism not typed; details: A549, 48 h, read-out: Inhibition HIV-1/EBOV
HIV-1/EBOV pseudovirus [3] = assay: microbe, parasite or virus in culture; details: Zaire ebolavirus, A549, read-out: IC50 (anti-HIV-1/EBOV)
A549 cells = details: 10 µM
[4] = test system: EBOV Mayinga isolate (EBOV-GFP); assay: microbe, parasite or virus in culture; assay type: cell-based, Ebola virus; details: for IC50: read-out: IC50 against replication of infectious EBOV
Ebola glycoprotein = details: cited from earlier work

SMILES | inhibition at 10 µM (HIV-1/H5N1 pseudovirus) | inhibition at 10 µM (HIV-1/LASV pseudovirus) | SI (CC50/IC50) (HIV-1/EBOV pseudovirus [1]) | CC50 (in vitro) | viability at 10 µM (in vitro) | inhibition at 10 µM (HIV-1/EBOV pseudovirus [2]) | IC50 (HIV-1/EBOV pseudovirus [3]) | Inhibition HIV/H5N1 (HIV-1/H5N1 pseudovirus) | Inhibition HIV/LASV (HIV-1/LASV pseudovirus) | Inhibition HIV/EBOV (HIV-1/EBOV pseudovirus [1]) | Cell Viability (A549 cells) | also measured
CCN(CC)CC(=O)NCc1cc(-c2ccc(I)cc2)no1 [3,5-Disubstituted isoxazole] | – | – | – | – | – | – | – | – | – | – | – | IC50 (EBOV): 2.5 µM
O=c1oc2c(O)c(O)cc3c(=O)oc4c(O)c(O)cc1c4c23 [Ellagic acid] | – | – | – | – | – | – | – | – | – | – | – | IC50 (EBOV): 1.4 µM
COc1ccc(S(=O)(=O)N(CC(=O)Nc2ccccc2-c2ccccc2)c2ccc(C)cc2)cc1 [MBX 2254] | – | – | – | – | – | – | – | – | – | – | – | IC90 (EBOV): 3 µM
COc1nc2ccccc2cc1C(O)(Cc1cccc(F)c1)c1ccccc1CN(C)C (stereo not shown) [SYL1640] | -1.97% | -15.1% | 64.3 | 190 µM | 97.6% | 79.1% | 2.96 µM | – | – | – | – | –
COc1nc2ccccc2cc1C(c1ccccc1)C(O)(CC(=O)N(C)C)c1cccc2ccccc12 (stereo not shown) [SYL1642] | 14.1% | 35% | 29.2 | 152 µM | 72.3% | 92.2% | 5.21 µM | – | – | – | – | –
COc1nc2ccc(Br)cc2cc1C(O)(CCc1ccccc1)c1ccccc1CN(C)C (stereo not shown) [SYL1654] | 8.04% | 18.8% | 44.7 | 222 µM | 94.7% | 84.8% | 4.98 µM | – | – | – | – | –
COc1ccc(CC(O)(c2ccccc2CN(C)C)c2cc3cc(Br)ccc3nc2OC)cc1 (stereo not shown) [SYL1655] | -17.2% | 28.9% | 49.9 | 132 µM | 95.3% | 90.3% | 2.65 µM | – | – | – | – | –
COc1cccc(COc2nc3ccc(Br)cc3cc2-c2cccc(CN(C)C)c2)c1 [SYL1657] | 0.16% | 25.8% | 60.3 | 215 µM | 93.9% | 89.2% | 3.56 µM | – | – | – | – | –
Brc1ccc2nc(OCc3cccc4ccccc34)c(-c3cnn(C4CCCCO4)c3)cc2c1 (stereo not shown) [SYL1658] | 36.9% | 19.2% | 12.7 | 110 µM | 72.7% | 77.4% | 8.65 µM | – | – | – | – | –
COC1=Nc2ccccc2C(C2(c3ccccc3)CCN(C)CC2)C1C(=O)c1ccccc1 (stereo not shown) [SYL1660] | 3.34% | -26.6% | 71.6 | 185 µM | 106% | 97.5% | 2.58 µM | – | – | – | – | –
Brc1ccc2nc(OCc3cccc4ccccc34)c(-c3ccc(CNC45CC6CC(CC(C6)C4)C5)cc3)cc2c1 [SYL1683] | 21.7% | 26.3% | 80.3 | 235 µM | 104% | 95.7% | 2.93 µM | – | – | – | – | –
COc1cccc(COc2nc3ccc(Br)cc3cc2-c2ccc(CN(C)C)cc2)c1 [SYL1707] | – | – | – | – | – | – | – | 95.43% | 78.74% | 99.14% | 80.79% | –
Brc1ccc2nc(OCc3cccc4ccccc34)c(-c3ccc(CN4CCOCC4)cc3)cc2c1 [SYL1708] | – | – | – | – | – | – | – | 18.60% | 82.96% | 98.58% | 80.29% | –
COc1cc(-c2cc3cc(Br)ccc3nc2OCc2cccc3ccccc23)ccc1CN(C)C [SYL1709] | – | – | – | – | – | – | – | 94.56% | 81.68% | 99.76% | 74.44% | –
CN(C)CCN1CCN(c2ccc(-c3cc4cc(Br)ccc4nc3OCc3cccc4ccccc34)cc2)CC1 [SYL1710] | – | – | – | – | – | – | – | 97.63% | 98.64% | 99.39% | 1.97% | –
CN(C)Cc1ccc(-c2cc3cc(Br)ccc3nc2-n2ccnc2)cc1 [SYL1711] | 38.3% | 25.5% | 58.9 | 242 µM | 90.7% | 98.7% | 4.11 µM | – | – | – | – | –
CN(C)Cc1ccc(-c2cc3cc(Br)ccc3nc2OCc2ccc(Cl)cc2)cc1 [SYL1712] | 5.75% | 55.4% | 225.9 | – | 96.9% | 99.4% | ~1 µM | – | – | – | – | selective index (SI) [4]: 37.2; IC50 ([4]; Zaire ebolavirus, HeLa, 24 h): 2 µM; IC50 [4]: 1.99 µM; IC50 (HIV-1/EBOV pseudovirus [1]; read-out: IC50 (anti-HIV-1/EBOV)): 0.95 µM
CN(C)Cc1ccc(-c2cc3cc(Br)ccc3nc2N2CCN(C)CC2)cc1 [SYL1713] | – | – | – | – | – | – | – | 97.68% | 99.40% | 99.58% | 1.24% | –
CN(C)Cc1ccc(-c2cc3cc(Br)ccc3nc2N2CCCCC2)cc1 [SYL1714] | – | – | – | – | – | – | – | 83.36% | 51.47% | 98.67% | 91.09% | –
CN(C)Cc1ccc(-c2cc3cc(Br)ccc3nc2OCc2cccc(F)c2)cc1 [SYL1715] | – | – | – | – | – | – | – | 95.43% | 76.84% | 99.61% | 84.72% | –
COc1cc(CN(C)C)ccc1-c1cc2cc(Br)ccc2nc1OCc1cccc2ccccc12 [SYL1716] | – | – | – | – | – | – | – | 98.20% | 99.34% | 99.70% | 1.73% | –
CN(C)CCNc1nc2ccc(Br)cc2cc1-c1ccc(CN(C)C)cc1 [SYL1721] | – | – | – | – | – | – | – | 98.20% | 99.50% | 99.63% | 1.26% | –
CN(C)CCOc1nc2ccc(Br)cc2cc1-c1ccc(CN(C)C)cc1 [SYL1723] | – | – | – | – | – | – | – | 98.10% | 97.12% | 99.81% | 68.89% | –
CN(C)CCOc1ccc(/C(=C(/CCCl)c2ccccc2)c2ccccc2)cc1 [Toremifene] | – | – | – | – | – | – | – | – | – | – | – | Kd (Ebola glycoprotein): 16 µM
FC(F)C(F)(F)C1=Nc2ccccc2N=C(c2ccccc2)C1 [benzodiazepine] | – | – | – | – | – | – | – | – | – | – | – | IC90 (EBOV): 3.5 µM

— publication PMC6315506 (Viruses, 2018)
